From patent publication US12527325B2, “Pesticidally active diazine-amide compounds” (SYNGENTA CROP PROTECTION AG, priority 2019, dated 2026) come the findings set out here.

What all share (type): in vivo
For test [1], the system named is Plutella xylostella. Nature of the test: Example B5: Plutella xylostella (Diamond Back Moth). Conditions: 192 h, application rate of 200 ppm, 24-well artificial diet, eggs, 8 days after infestation, read-out: control in at least one of the two categories (mortality or growth inhibition). Here is the method: Example B5: Plutella xylostella (Diamond Back Moth)
24-well microtiter plates with artificial diet were treated with aqueous test solutions prepared from 10′000 ppm DMSO stock solutions by pipetting. After drying, Plutella eggs were pipetted through a plastic stencil onto a gel blotting paper and the plate was closed with it. The samples were assessed for mortality and growth inhibition in comparison to untreated samples 8 days after infestation.

The next test relates to Spodoptera littoralis. Put plainly: Example B9: Spodoptera littoralis (Egyptian Cotton Leaf Worm), cotton leaf disc spray. Conditions: foliar, 72 h, application rate of 200 ppm, sprayed cotton leaf discs, L1 larvae, 3 days after infestation, read-out: control in at least one of the three categories (mortality, anti-feedant or growth inhibition).
In the next test the test system is Chilo suppressalis. Put plainly: Example B4: Chilo suppressalis (Striped Rice Stemborer). The settings on record: 144 h, application rate of 200 ppm, artificial diet, L2 larvae, 6 days after infestation, read-out: control in at least one of the three categories (mortality, anti-feedant or growth inhibition). Here is the method: Example B4: Chilo suppressalis (Striped Rice Stemborer)
24-well microtiter plates with artificial diet were treated with aqueous test solutions prepared from 10′000 ppm DMSO stock solutions by pipetting. After drying, the plates were infested with L2 larvae (6-8 per well). The samples were assessed for mortality, anti-feeding effect, and growth inhibition in comparison to untreated samples 6 days after infestation. Control of Chilo suppressalis by a test sample is given when at least one of the categories mortality, anti-feedant effect, and growth inhibition is higher than the untreated sample.

The test system of the next test is Diabrotica balteata. Put plainly: Example B1: Diabrotica balteata (Corn Root Worm). Conditions: 96 h, application rate of 200 ppm, sprayed maize sprouts, L2 larvae, 4 days after infestation, read-out: control in at least one of the two categories (mortality or growth inhibition). As for the experimental part: Example B1: Diabrotica balteata (Corn Root Worm)
Maize sprouts placed onto an agar layer in 24-well microtiter plates were treated with aqueous test solutions prepared from 10′000 ppm DMSO stock solutions by spraying. After drying, the plates were infested with L2 larvae (6 to 10 per well). The samples were assessed for mortality and growth inhibition in comparison to untreated samples 4 days after infestation.

Test [2] has as its system Plutella xylostella. Nature of the test: Example B12: Plutella xylostella (Diamondback Moth), 96-well artificial diet. The settings on record: 216 h, application rate of 500 ppm, eggs, 9 days after infestation. As for the experimental part:
Example B12: Plutella xylostella (Diamondback Moth)
96-well microtiter plates containing artificial diet were treated with aqueous test solutions, prepared from 10′000 ppm DMSO stock solutions, by a liquid handling robot. After drying, eggs (˜30 per well) were infested onto a netted lid which was suspended above the diet. The eggs hatch and L1 larvae move down to the diet. The samples were assessed for mortality 9 days after infestation.

`CC(NC(=O)c1cc(C(F)(F)F)cc(C(F)(F)C2CC2)c1)c1nccnc1-c1ccc(Cl)cn1` (stereo not drawn) [P4, N-[1-[3-(5-chloro-2-pyridyl)pyrazin-2-yl]ethyl]-3-[cyclopropyl(difluoro)methyl]-5-(trifluoromethyl) benzamide]: the percent control (mortality or growth inhibition) at 200 ppm in the test with Plutella xylostella [1] was not below 80%. For the same compound, the percent control (mortality, anti-feedant effect or growth inhibition) at 200 ppm in the test with Spodoptera littoralis and in the test on Chilo suppressalis was not below 80% in each case.
In the case of `CC(NC(=O)c1cc(C(F)(F)F)cc(C(C)(C)C#N)c1)c1nccnc1-c1ccc(F)cn1` (stereo not drawn) [P5, 3-(1-cyano-1-methyl-ethyl)-N-[1-[3-(5-fluoro-2-pyridyl)pyrazin-2-yl]ethyl]-5-(trifluoromethyl) benzamide], the percent control (mortality or growth inhibition) at 200 ppm with Plutella xylostella [1] is not below 80%.
Regarding `CC(NC(=O)c1cc(C(F)(F)F)cc(C(C)(C)C#N)c1)c1nccnc1-c1ncc(C2CC2)cn1` (stereo not drawn) [P6, 3-(1-cyano-1-methyl-ethyl)-N-[1-[3-(5-cyclopropylpyrimidin-2-yl)pyrazin-2-yl]ethyl]-5-(trifluoromethyl) benzamide], the percent control (mortality or growth inhibition) at 200 ppm with Plutella xylostella [1] and with Diabrotica balteata was not below 80% each time. For the same compound, the percent control (mortality, anti-feedant effect or growth inhibition) at 200 ppm with Spodoptera littoralis and with Chilo suppressalis was not below 80% in each case.
Turning to `CC(NC(=O)c1cc(C(F)(F)F)cc(C(C)(C)C#N)c1)c1nccnc1-c1ccccn1` (stereo not drawn) [P7, 3-(1-cyano-1-methyl-ethyl)-N-[1-[3-(2-pyridyl)pyrazin-2-yl]ethyl]-5-(trifluoromethyl) benzamide], the percent control (mortality or growth inhibition) at 200 ppm in the test with Plutella xylostella [1] and with Diabrotica balteata was not below 80% each time. In addition, the percent control (mortality, anti-feedant effect or growth inhibition) at 200 ppm in the test with Spodoptera littoralis and in the test with Chilo suppressalis was not below 80% each time.
As for `CC(NC(=O)c1cc(C(F)(F)F)cc(C(C)(C)C#N)c1)c1nccnc1-c1ccc(Cl)cn1` (stereo not drawn) [P8, N-[1-[3-(5-chloro-2-pyridyl)pyrazin-2-yl]ethyl]-3-(1-cyano-1-methyl-ethyl)-5-(trifluoromethyl) benzamide], the percent control (mortality or growth inhibition) at 200 ppm in the test with Plutella xylostella [1] and in the test on Diabrotica balteata was not below 80% throughout. The percent control (mortality, anti-feedant effect or growth inhibition) at 200 ppm with Spodoptera littoralis and in the test with Chilo suppressalis was not below 80% each time.
As to `CC(NC(=O)c1cc(C(F)(F)F)cc(C(C)(C)C#N)c1)c1nccnc1-c1ccc(Br)cn1` (stereo not drawn) [P9, N-[1-[3-(5-bromo-2-pyridyl)pyrazin-2-yl]ethyl]-3-(1-cyano-1-methyl-ethyl)-5-(trifluoromethyl) benzamide], the percent control (mortality or growth inhibition) at 200 ppm with Plutella xylostella [1] and in the test on Diabrotica balteata was not below 80% in each case. Also, the percent control (mortality, anti-feedant effect or growth inhibition) at 200 ppm with Spodoptera littoralis and in the test with Chilo suppressalis was not below 80% throughout.
In the case of `CC(NC(=O)c1cc(C(F)(F)F)cc(S(=O)(=O)C(F)(F)F)c1)c1nccnc1-c1ccc(Br)cn1` (stereo not drawn) [P14, N-[1-[3-(5-bromo-2-pyridyl)pyrazin-2-yl]ethyl]-3-(trifluoromethyl)-5-(trifluoromethylsulfonyl) benzamide], the mortality – broadly, the share of the test organisms that died – at 500 ppm in the test on Plutella xylostella [2] is not below 80%.
With `CC(NC(=O)c1cc(C(F)(F)F)cc(S(=O)(=O)C(F)(F)F)c1)c1nccnc1-c1ccc(Cl)cn1` (stereo not drawn) [P15, N-[1-[3-(5-chloro-2-pyridyl)pyrazin-2-yl]ethyl]-3-(trifluoromethyl)-5-(trifluoromethylsulfonyl) benzamide], the mortality at 500 ppm in the test with Plutella xylostella [2] is not below 80%.
On to `CC(NC(=O)c1cc(C2CC2)cc(C(F)(F)F)c1)c1nccnc1-c1ccc(Br)cn1` (stereo not drawn) [P29, N-[1-[3-(5-bromo-2-pyridyl)pyrazin-2-yl]ethyl]-3-cyclopropyl-5-(trifluoromethyl)benzamide], for which the percent control (mortality or growth inhibition) at 200 ppm with Plutella xylostella [1] is not below 80%. This compound also gave a mortality at 500 ppm with Plutella xylostella [2] not below 80%.
Regarding `CC(NC(=O)c1cc(OCC2CC2)nc(C(F)(F)F)c1)c1nccnc1-c1ncccn1` (stereo not drawn) [P43, 2-(cyclopropylmethoxy)-N-[1-(3-pyrimidin-2-ylpyrazin-2-yl)ethyl]-6-(trifluoromethyl)pyridine-4-carboxamide], in the test with Plutella xylostella [1], the percent control (mortality or growth inhibition) at 200 ppm is not below 80%. In the test on Chilo suppressalis, the percent control (mortality, anti-feedant effect or growth inhibition) at 200 ppm is not below 80%.
In the case of `COC1(c2cc(C(=O)NC(C)c3nccnc3-c3ncccn3)cc(C(F)(F)F)c2)CC1` (stereo not drawn) [P47, 3-(1-methoxycyclopropyl)-N-[1-(3-pyrimidin-2-ylpyrazin-2-yl)ethyl]-5-(trifluoromethyl)benzamide], in the test on Plutella xylostella [1], the percent control (mortality or growth inhibition) at 200 ppm was not below 80%. In addition, in the test with Chilo suppressalis, the percent control (mortality, anti-feedant effect or growth inhibition) at 200 ppm was not below 80%.
As for `CC(NC(=O)c1cc(C(F)(F)F)cc(C(C)(C)C#N)c1)c1nccnc1-c1ncc(Br)cn1` (stereo not drawn) [P49, N-[1-[3-(5-bromopyrimidin-2-yl)pyrazin-2-yl]ethyl]-3-(1-cyano-1-methyl-ethyl)-5-(trifluoromethyl)benzamide], the percent control (mortality or growth inhibition) at 200 ppm in the test with Plutella xylostella [1] and in the test on Diabrotica balteata was not below 80% each time. For the same compound, the percent control (mortality, anti-feedant effect or growth inhibition) at 200 ppm with Spodoptera littoralis and in the test with Chilo suppressalis was not below 80% in each case.
As to `Cc1cnc(-c2nccnc2C(C)NC(=O)c2cc(C3CC3)cc(C(F)(F)F)c2)nc1` (stereo not drawn) [P51, 3-cyclopropyl-N-[1-[3-(5-methylpyrimidin-2-yl)pyrazin-2-yl]ethyl]-5-(trifluoromethyl)benzamide], the percent control (mortality or growth inhibition) at 200 ppm with Plutella xylostella [1] is not below 80%. Also, the percent control (mortality, anti-feedant effect or growth inhibition) at 200 ppm in the test with Spodoptera littoralis was not below 80%.
On to `Cc1cnc(-c2nccnc2C(C)NC(=O)c2cc(C(F)(F)F)cc(C(F)(F)C3CC3)c2)nc1` (stereo not drawn) [P52, 3-[cyclopropyl (difluoro)methyl]-N-[1-[3-(5-methylpyrimidin-2-yl)pyrazin-2-yl]ethyl]-5-(trifluoromethyl)benzamide], for which, in the test on Plutella xylostella [1], the percent control (mortality or growth inhibition) at 200 ppm is not below 80%. The percent control (mortality, anti-feedant effect or growth inhibition) at 200 ppm with Spodoptera littoralis was not below 80%.
Consider `CC(NC(=O)c1cc(C(F)(F)F)cc(C(F)(F)C2CC2)c1)c1nccnc1-c1ncc(Br)cn1` (stereo not drawn) [P53, N-[1-[3-(5-bromopyrimidin-2-yl)pyrazin-2-yl]ethyl]-3-[cyclopropyl(difluoro)methyl]-5-(trifluoromethyl)benzamide], for which the percent control (mortality or growth inhibition) at 200 ppm in the test on Plutella xylostella [1] and with Diabrotica balteata was not below 80% throughout. For the same compound, the percent control (mortality, anti-feedant effect or growth inhibition) at 200 ppm with Spodoptera littoralis and in the test with Chilo suppressalis was not below 80% each time.
Take `Cc1cnc(-c2nccnc2C(C)NC(=O)c2cc(C(F)(F)F)cc(C3(C#N)CC3)c2)nc1` (stereo not drawn) [P54, 3-(1-cyanocyclopropyl)-N-[1-[3-(5-methylpyrimidin-2-yl)pyrazin-2-yl]ethyl]-5-(trifluoromethyl)benzamide]: the percent control (mortality or growth inhibition) at 200 ppm in the test on Plutella xylostella [1] is not below 80%. Further, the percent control (mortality, anti-feedant effect or growth inhibition) at 200 ppm in the test with Spodoptera littoralis and in the test on Chilo suppressalis was not below 80% each time.
`Cc1cnc(-c2nccnc2C(C)NC(=O)c2cc(C(F)(F)F)cc(S(=O)(=O)C(F)(F)F)c2)nc1` (stereo not drawn) [P56, N-[1-[3-(5-methylpyrimidin-2-yl)pyrazin-2-yl]ethyl]-3-(trifluoromethyl)-5-(trifluoromethylsulfonyl) benzamide]: in the test on Plutella xylostella [1], the percent control (mortality or growth inhibition) at 200 ppm was not below 80%. For the same compound, the percent control (mortality, anti-feedant effect or growth inhibition) at 200 ppm with Spodoptera littoralis and in the test with Chilo suppressalis was not below 80% throughout.
For `CC(NC(=O)c1cc(C(F)(F)F)cc(S(=O)(=O)C(F)(F)F)c1)c1nccnc1-c1ncc(Br)cn1` (stereo not drawn) [P57, N-[1-[3-(5-bromopyrimidin-2-yl)pyrazin-2-yl]ethyl]-3-(trifluoromethyl)-5-(trifluoromethylsulfonyl) benzamide], the percent control (mortality or growth inhibition) at 200 ppm in the test with Plutella xylostella [1] and in the test with Diabrotica balteata was not below 80% in each case. Besides, the percent control (mortality, anti-feedant effect or growth inhibition) at 200 ppm with Spodoptera littoralis and in the test on Chilo suppressalis was not below 80% each time.
Regarding `CC(NC(=O)c1cc(C2CC2)cc(C(F)(F)F)c1)c1nccnc1-c1ncc(Br)cn1` (stereo not drawn) [P58, N-[1-[3-(5-bromopyrimidin-2-yl)pyrazin-2-yl]ethyl]-3-cyclopropyl-5-(trifluoromethyl) benzamide], the percent control (mortality or growth inhibition) at 200 ppm in the test with Plutella xylostella [1] and with Diabrotica balteata was not below 80% each time. For the same compound, the percent control (mortality, anti-feedant effect or growth inhibition) at 200 ppm with Spodoptera littoralis and in the test with Chilo suppressalis was not below 80% each time.
